From patent US20220112165A1, “PEGYLATED PRODRUGS OF PHENOLIC TRPV1 AGONISTS” (priority 2018, published 2022)
Like-named read-outs stand apart in the source and are kept apart here.

Test: In vitro (pH stability) assay: intramolecular cyclization-release of capsaicin from the prodrug in buffer
Assay type: physicochemical
Settings: for stability at pH 4.5 at room temperature in comparison to the non-acylated prodrug (compound 6): pH 4.5, RT
Procedure: The compounds described herein are examples of pH activated prodrugs whereby upon exposure to a specific pH, the half-life of the intramolecular cyclization-release reaction is determined. The intramolecular cyclization-release reaction results in the concomitant formation of a cyclic urea with the release of the parent drug.
Compounds were incubated in the buffer/biological media indicated. The reactions were conducted at either room temperature or 37° C. In some embodiments, additional common ingredients/formulations which may be used in buffers for the testing of the cyclization-release of the compounds described herein include but are not limited to: N-(2-Acetamido)-2-aminoethanesulfonic acid, N-(2-Acetamido)iminodiacetic acid, 2-Amino-2-methyl-1,3-propanediol, salts of bicarbonate, N,N-Bis(2-hydroxyethyl)glycine, 2-Bis(2-hydroxyethyl)amino-2-(hydroxymethyl)-1,3-propanediol, 3-(Cyclohexylamino)-1-propanesulfonic acid, 2-(Cyclohexylamino)ethanesulfonic acid, salts of carbonate, salts of citrate, 4-(2-Hydroxyethyl)-1-piperazinepropanesulfonic acid, salts of glycine, salts of Glycyl-glycine, 4-(2-Hydroxyethyl)piperazine-1-ethanesulfonic acid, 4-Morpholineethanesulfonic acid, 4-Morpholinepropanesulfonic acid, 1,4-Piperazinediethanesulfonic acid, salts of phosphate, salts of tartrate, 2-[(2-Hydroxy-1,1-bis(hydroxymethyl)ethyl)amino]ethanesulfonic acid, Tris(2-hydroxyethyl)amine, and salts of EDTA.
Samples were collected at specific time points, quenched with a 1.0% TFA in acetonitrile solution to stop the cyclization-release reaction and analyzed by HPLC for formation of released capsaicin, cyclic urea by-product, and consumption of starting compound in plasma and cerebrospinal fluid (CSF).

[1] = buffer (simulated physiological conditions), simulated physiological conditions, pH 7.4 & 37° C., read-out: half-life of conversion to capsaicin
[2] = pH = 4.5 (0.1M aqueous sodium acetate buffer), RT, read-out: Intramolecular Cyclization-Release Half-life (T1/2) at pH 4.5 & RT (converted)
[3] = pH = 7.4 (0.2M aqueous tris buffer), 37° C., read-out: Intramolecular Cyclization-Release Half-life (T1/2) at pH 7.4 & 37° C.

| Compound | half-life [1] | stability at pH 4.5 at room temperature in comparison to the non-acylated prodrug (compound 6) | half-life [2] | half-life [3] |
| --- | --- | --- | --- | --- |
| CNCC1CN(C(=O)CCOCCOCCOCCOC)CCN1C(=O)Oc1ccc(CNC(=O)CCCC/C=C/C(C)C)cc1OC (stereo not drawn) [Compound 1, (E)-2-methoxy-4-((8-methylnon-6-enamido)methyl)phenyl 2-((methylamino)methyl)-4-(2,5,8,11-tetraoxatetradecan-14-oyl)piperazine-1-carboxylate] | < 5 min | significant and unexpected increase in stability | 2600 min | ~0.8 min |
| CNCC1CN(C(=O)CCOCCOCCOCCOCCOCCOCCOC)CCN1C(=O)Oc1ccc(CNC(=O)CCCC/C=C/C(C)C)cc1OC (stereo not drawn) [Compound 2, (E)-2-methoxy-4-((8-methylnon-6-enamido)methyl)phenyl 2-((methylamino)methyl)-4-(2,5,8,11,14,17,20-heptaoxatricosan-23-oyl)piperazine-1-carboxylate] | < 5 min | significant and unexpected increase in stability | 2450 min | ~0.7 min |
| CNCC1CN(C(=O)CCOCCOCCOCCOCCOCCOCCOCCOCCOCCOC)CCN1C(=O)Oc1ccc(CNC(=O)CCCC/C=C/C(C)C)cc1OC (stereo not drawn) [Compound 3, (E)-2-methoxy-4-((8-methylnon-6-enamido)methyl)phenyl 4-(2,5,8,11,14,17,20,23,26,29-decaoxadotriacontan-32-oyl)-2-((methylamino)methyl)piperazine-1-carboxylate] | < 5 min | significant and unexpected increase in stability | 3060 min | ~0.8 min |
| CNCC1CN(C(=O)CCOCCOCCOCCOCCOCCOCCOCCOCCOCCOCCOCCOCCOC)CCN1C(=O)Oc1ccc(CNC(=O)CCCC/C=C/C(C)C)cc1OC (stereo not drawn) [Compound 4, (E)-2-methoxy-4-((8-methylnon-6-enamido)methyl)phenyl 4-(2,5,8,11,14,17,20,23,26,29,32,35,38-tridecaoxahentetracontan-41-oyl)-2-((methylamino)methyl)piperazine-1-carboxylate] | < 5 min |  |  | ~0.6 min |
| CNCC1CNCCN1C(=O)Oc1ccc(CNC(=O)CCCC/C=C/C(C)C)cc1OC (stereo not drawn) [Compound 5] | < 5 min |  |  | ~0.4 min |
| CNCC1CN(C)CCN1C(=O)Oc1ccc(CNC(=O)CCCC/C=C/C(C)C)cc1OC (stereo not drawn) [Compound 6, (E)-2-methoxy-4-((8-methylnon-6-enamido)methyl)phenyl 4-methyl-2-((methylamino)methyl)piperazine-1-carboxylate] | < 5 min |  | 78 min | ~0.8 min |
| CNCC1CN(C(C)=O)CCN1C(=O)Oc1ccc(CNC(=O)CCCC/C=C/C(C)C)cc1OC (stereo not drawn) [Compound 7, (E)-2-methoxy-4-((8-methylnon-6-enamido)methyl)phenyl 4-acetyl-2-((methylamino)methyl)piperazine-1-carboxylate] | < 5 min | significant and unexpected increase in stability | 6930 min | ~0.9 min |
| CCOC(=O)N1CCN(C(=O)Oc2ccc(CNC(=O)CCCC/C=C/C(C)C)cc2OC)C(CNC)C1 (stereo not drawn) [Compound 8, (E)-4-ethyll-(2-methoxy-4-((8-methylnon-6-enamido)methyl)phenyl) 2-((methylamino)methyl)piperazine-1,4-dicarboxylate] | < 5 min | significant and unexpected increase in stability | 2770 min | ~1.3 min |
